For this experiment, the target named is BTK (Homo sapiens, UniProt Q06187). Nature of the experiment: BTK degradation in Mino cells, dose-response Western blot. The conditions noted are these: 24 h; for DC50: second-order polynomial fit; for Dmax: MINO, read-out: Dmax (maximal degradation). Details: endogenous in cells; host or cells: Mino (ATCC CRL-3000), Ramos (ATCC CRL-1596), K562 (NCI-60). The experiment is classed as cell-based. The procedure:
We evaluated the ability of the compounds to induce degradation of BTK in human cell lines. We incubated Mino cells with the compounds and followed BTK levels after 24 h by Western blot (Figure 2, Supporting Figure 2). […] The irreversible acrylamides IR-1 and IR-2 and the cyanoacrylamide RC-3 followed closely with DC50’s under 10 nM and Dmax near 90%. […] We conducted metabolomics studies to estimate if cellular penetration and stability may contribute to the relative potencies (Supporting Table 2). NC-1 and RC-3 reached an effective concentration that was ∼2 times higher than IR-2 and ∼10 times higher than RC-2. Therefore, the lower potency of RC-2 can at least in part be explained by lower permeability or stability.
Figure 2 Efficient BTK degradation in cells. (A) Western blot evaluation of BTK levels in Mino cells in response to various concentrations of RC-2, IR-2, NC-1, and RC-3, after 24 h of incubation. (B) Quantification of BTK levels in (A) by normalization to the β-actin house-keeping gene in Mino cells. DC50 and Dmax were calculated by fitting the data to a second-order polynomial using Prism software. (C) Summary of the DC50 and Dmax values for the PROTACs in Mino cells described in (A) and Supporting Figure 2. TEXT PRINTED IN THE PICTURE: (C) NC-1: DC50 (nM): 2.2; Dmax (%): 97 | (C) IR-1: DC50 (nM): 8.6; Dmax (%): 91 | (C) IR-2: DC50 (nM): 1.9; Dmax (%): 88 | (C) RC-1: DC50 (nM): 10; Dmax (%): 68 | (C) RC-2: DC50 (nM): 35; Dmax (%): 66 | (C) RC-3: DC50 (nM): 6; Dmax (%): 85
Ramos (ATCC, CRL-1596), Mino (ATCC, CRL-3000), or K562 (NCI-60) cell lines were counted and diluted to 10^6 cell/mL, using 1 mL per well in a 24-well plate, and U2OS (ATCC HTB-96) cells overexpressing human BTK WT or C481S mutant were grown using 2 mL in a six-well plate (see Supporting Information). Cells were incubated with 1% DMSO or compound in indicated concentrations for 24 h unless indicated differently, or cells were left untreated. Lysates were prepared as previously described,[29] and samples were measured for total protein quantification by bicinchoninic acid (BCA) assay (#23225 ThermoFisher Scientific) supplemented with 4× loading buffer including 20 mM DTT, heated to 70 °C for 10 min, loaded into 4% SDS-PAGE gel, run for 45 min at 140 mV, then transferred into a nitrocellulose membrane (Biorad) using a Trans-Blot Turbo transfer system (Biorad). The membrane was stained with Ponceau (Sigma) to validate transfer for 10 min in gentle agitation then destained for 1 h with MQ water. The membrane was blocked with Licor blocking buffer (LIC927-70001) for 1 h, washed three times for 5 min with TBS-T, incubated with primary antibody BTK (D3H5) rabbit mAb (CST; 8547 S) overnight (16 h) at 4 °C, washed three times for 5 min with TBS-T, and incubated with primary antibody against β-actin (CST; 3700) for 1 h at 25 °C. Membrane was washed three times for 5 min with TBS-T, incubated with fluorescent secondary antibodies anti-mouse IgG Alexa Fluor 647 (CST: 4410S) and anti-rabbit-IgG IRDye 800(LICOR: 926-32211) for 1 h, then washed three times for 5 min with TBS-T, dried, and immediately imaged and analyzed using Licor Odyssey CLx. Prism (GraphPad) software was used to calculate degradation levels. We used second-order polynomial fits to estimate DC50 and Dmax values.
(A western blot detects proteins with antibodies after separation by electrophoresis.)

Values joined by “and” are separate entries in the source; they are usually repeats but may differ in a detail not shown here. Equal entries are not always repeated. Some results are limits rather than exact numbers.

The record followed here is article PMC7349657, “Efficient Targeted Degradation via Reversible and Irreversible Covalent PROTACs” (Journal of the American Chemical Society, 2020).

Sequence of BTK (Q06187 whole entry): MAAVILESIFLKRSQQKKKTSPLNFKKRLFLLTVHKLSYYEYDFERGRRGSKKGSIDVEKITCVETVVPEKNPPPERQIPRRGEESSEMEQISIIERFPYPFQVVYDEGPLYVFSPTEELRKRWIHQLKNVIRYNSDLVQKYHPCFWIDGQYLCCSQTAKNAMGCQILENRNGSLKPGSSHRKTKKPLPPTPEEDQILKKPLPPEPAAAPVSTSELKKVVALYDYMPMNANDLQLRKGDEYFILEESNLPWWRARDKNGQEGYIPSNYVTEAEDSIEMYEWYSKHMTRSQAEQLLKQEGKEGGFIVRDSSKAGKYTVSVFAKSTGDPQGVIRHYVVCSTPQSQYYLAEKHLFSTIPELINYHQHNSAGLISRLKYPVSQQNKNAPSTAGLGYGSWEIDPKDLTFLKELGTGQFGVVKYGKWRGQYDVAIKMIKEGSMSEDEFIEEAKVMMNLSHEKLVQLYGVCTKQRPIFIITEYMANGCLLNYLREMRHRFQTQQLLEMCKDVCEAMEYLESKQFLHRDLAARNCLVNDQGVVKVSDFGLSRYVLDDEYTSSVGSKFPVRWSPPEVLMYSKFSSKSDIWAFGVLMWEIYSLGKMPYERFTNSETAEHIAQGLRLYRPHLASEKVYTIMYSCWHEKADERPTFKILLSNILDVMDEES

`Nc1ncnc2c1c(-c1ccc(Oc3ccccc3)cc1)nn2C1CCCN(C(=O)C=CCOCCOCCOCCOCCOCCOc2cccc3c2C(=O)N(C2CCC(=O)NC2=O)C3=O)C1` (centres unmarked) [IR-1]: the “Dmax (maximal degradation)” value turned out to be 91%; the DC50 (commonly the concentration giving 50% degradation) was < 10 nM and 8.6 nM; the maximal degradation (Dmax) (commonly the greatest extent of degradation seen) was ~90%.

For the compound `Nc1ncnc2c1c(-c1ccc(Oc3ccccc3)cc1)nn2C1CCCN(C(=O)C=CCCCCOCCOCCOCCOCCOc2cccc3c2C(=O)N(C2CCC(=O)NC2=O)C3=O)C1` (centres unmarked) [IR-2], the “Dmax (maximal degradation)” value is 88% and the Dmax is ~90%.

Consider `Nc1ncnc2c1c(-c1ccc(Oc3ccccc3)cc1)nn2C1CCCN(C(=O)CCCCCCOCCOCCOCCOCCOc2cccc3c2C(=O)N(C2CCC(=O)NC2=O)C3=O)C1` (centres unmarked) [NC-1], for which the DC50 amounted to 2.2 nM and the Dmax turned out to be 97%.

With `N#CC(=CCCCCOCCOCCOCCOCCOc1cccc2c1C(=O)N(C1CCC(=O)NC1=O)C2=O)C(=O)N1CCCC(n2nc(-c3ccc(Oc4ccccc4)cc3)c3c(N)ncnc32)C1` (centres unmarked) [RC-2], the Dmax was 66%.

In the case of `CC(C)(C=C(C#N)C(=O)N1CCCC(n2nc(-c3ccc(Oc4ccccc4)cc3)c3c(N)ncnc32)C1)CCCOCCOCCOCCOCCOc1cccc2c1C(=O)N(C1CCC(=O)NC1=O)C2=O` (centres unmarked) [RC-3], the “Dmax (maximal degradation)” value is 85%; the DC50 is < 10 nM and 6 nM; the Dmax was ~90%.
